Assays:
Monoamine Oxidase MAO-A = Monoamine Oxidase MAO-A (Homo sapiens, UniProt P21397); assay: Safety screen; type: biochemical
Experimental: (§1) Blood cell counts, kinase profiler, safety screen, bacterial cytotoxicity, Ames, micronucleus assays were performed by the company Eurofins (France). The kinase profiler was performed by the company Eurofins (Discovery, Panlab and Cerep).

Monoamine Oxidase MAO-B = Monoamine Oxidase MAO-B (Homo sapiens, UniProt P27338); assay: Safety screen; type: biochemical
Experimental: Blood cell counts, kinase profiler, safety screen, bacterial cytotoxicity, Ames, micronucleus assays were performed by the company Eurofins (France).

[1] = tested on: Protein Ser/Thr Kinase, PKC, Non- Selective; assay: Safety screen; type: biochemical, rat
Experimental: (§2) The kinase profiler was performed by the company Eurofins (Discovery, Panlab and Cerep).

Calcium Channel N-Type = Calcium Channel N-Type (Rattus norvegicus, UniProt Q02294); assay: Safety screen; type: binding
[2] = target: Serotonin (5-Hydroxytryptamine) 5-HT2A (Homo sapiens, UniProt P28223); assay: Safety screen; type: binding
Serotonin (5-Hydroxytryptamine) 5-HT2A, sequence (P28223 whole entry): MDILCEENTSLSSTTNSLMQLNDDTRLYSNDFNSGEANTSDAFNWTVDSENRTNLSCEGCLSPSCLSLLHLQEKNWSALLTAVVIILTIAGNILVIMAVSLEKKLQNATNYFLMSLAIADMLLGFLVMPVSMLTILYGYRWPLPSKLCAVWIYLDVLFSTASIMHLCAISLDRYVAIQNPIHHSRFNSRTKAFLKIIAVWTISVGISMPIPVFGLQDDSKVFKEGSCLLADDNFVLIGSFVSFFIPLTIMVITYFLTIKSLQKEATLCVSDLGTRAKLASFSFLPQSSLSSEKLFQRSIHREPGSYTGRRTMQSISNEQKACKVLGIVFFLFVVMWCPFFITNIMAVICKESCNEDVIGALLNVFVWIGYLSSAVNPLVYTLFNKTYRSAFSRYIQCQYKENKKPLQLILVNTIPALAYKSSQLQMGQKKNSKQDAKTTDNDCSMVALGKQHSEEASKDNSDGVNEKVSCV
Experimental: as §1

B-Raf(h) = B-Raf(h) (Homo sapiens, UniProt P15056); assay: Kinase Profiler; type: biochemical
Experimental: as §1

CDK2/cyclinA(h) = CDK2/cyclinA(h) (Homo sapiens, UniProt P24941); assay: Kinase Profiler; type: biochemical
Experimental: as §1

CDK7/cyclinH/MAT1(h) = CDK7/cyclinH/MAT1(h) (Homo sapiens, UniProt P50613); assay: Kinase Profiler; type: biochemical
CDK7/cyclinH/MAT1(h), sequence (P50613 whole entry): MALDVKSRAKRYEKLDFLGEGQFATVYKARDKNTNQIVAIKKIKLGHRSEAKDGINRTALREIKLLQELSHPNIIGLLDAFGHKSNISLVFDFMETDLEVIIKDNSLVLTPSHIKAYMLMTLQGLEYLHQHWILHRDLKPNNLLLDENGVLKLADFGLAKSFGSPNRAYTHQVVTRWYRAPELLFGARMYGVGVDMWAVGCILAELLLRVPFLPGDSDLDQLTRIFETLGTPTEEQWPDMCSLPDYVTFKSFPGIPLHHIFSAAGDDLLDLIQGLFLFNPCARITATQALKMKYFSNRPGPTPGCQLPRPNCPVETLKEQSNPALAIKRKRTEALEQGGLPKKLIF
CDK7/cyclinH/MAT1(h), sequence (P51946 whole entry partner): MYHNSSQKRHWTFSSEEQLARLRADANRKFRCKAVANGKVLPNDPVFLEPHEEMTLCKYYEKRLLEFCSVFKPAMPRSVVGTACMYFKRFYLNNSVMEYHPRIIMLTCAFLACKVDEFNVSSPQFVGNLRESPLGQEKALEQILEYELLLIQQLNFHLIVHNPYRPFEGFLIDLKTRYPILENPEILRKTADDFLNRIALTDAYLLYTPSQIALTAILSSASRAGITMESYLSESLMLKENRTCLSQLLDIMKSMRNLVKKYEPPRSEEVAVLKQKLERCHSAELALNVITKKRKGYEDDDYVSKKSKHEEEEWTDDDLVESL
CDK7/cyclinH/MAT1(h), sequence (P51948 whole entry partner): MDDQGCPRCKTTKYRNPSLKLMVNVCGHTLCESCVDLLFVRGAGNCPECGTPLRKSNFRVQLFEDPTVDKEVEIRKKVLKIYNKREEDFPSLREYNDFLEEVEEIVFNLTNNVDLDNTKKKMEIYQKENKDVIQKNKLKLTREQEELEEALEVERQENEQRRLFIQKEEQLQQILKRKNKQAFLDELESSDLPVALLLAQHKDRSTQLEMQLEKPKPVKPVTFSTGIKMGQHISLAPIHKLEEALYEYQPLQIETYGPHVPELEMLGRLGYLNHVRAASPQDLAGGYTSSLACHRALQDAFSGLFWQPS
Experimental: as §1

DCAMKL2(h) = DCAMKL2(h) (Homo sapiens, UniProt Q8N568); assay: Kinase Profiler; type: biochemical
Experimental: as §1

DDR1(h) = DDR1(h) (Homo sapiens, UniProt Q08345); assay: Kinase Profiler; type: biochemical
Experimental: as §1

HIPK1(h) = HIPK1(h) (Homo sapiens, UniProt Q86Z02); assay: Kinase Profiler; type: biochemical
Experimental: as §2

IR(h), activated = IR(h), activated (Homo sapiens, UniProt P06213); assay: Kinase Profiler; type: biochemical
Experimental: as §1

Lck(h) activated = Lck(h) activated (Homo sapiens, UniProt P06239); assay: Kinase Profiler; type: biochemical
Lck(h) activated, sequence (P06239 whole entry): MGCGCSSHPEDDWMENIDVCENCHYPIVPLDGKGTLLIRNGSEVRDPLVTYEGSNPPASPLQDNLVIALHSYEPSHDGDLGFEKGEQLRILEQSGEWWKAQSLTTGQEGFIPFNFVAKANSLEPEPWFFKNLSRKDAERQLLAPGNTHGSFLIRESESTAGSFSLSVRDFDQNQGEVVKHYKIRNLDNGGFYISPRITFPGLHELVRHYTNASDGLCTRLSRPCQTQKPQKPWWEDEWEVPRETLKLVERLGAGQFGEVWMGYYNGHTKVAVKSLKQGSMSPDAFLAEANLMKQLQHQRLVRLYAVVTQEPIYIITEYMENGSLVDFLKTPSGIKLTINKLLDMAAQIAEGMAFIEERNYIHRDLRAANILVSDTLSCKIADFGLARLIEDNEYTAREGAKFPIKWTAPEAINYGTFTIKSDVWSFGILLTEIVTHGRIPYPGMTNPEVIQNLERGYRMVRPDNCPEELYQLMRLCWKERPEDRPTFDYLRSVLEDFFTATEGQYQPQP
Experimental: as §2

MAK(h) = MAK(h) (Homo sapiens, UniProt P20794); assay: Kinase Profiler; type: biochemical
Experimental: as §2

MEK2(h) = MEK2(h) (Homo sapiens, UniProt P36507); assay: Kinase Profiler; type: biochemical
Experimental: as §2

Met(Y1248C)(h) = Met(Y1248C)(h) (Homo sapiens, UniProt P08581, Y1230C); assay: Kinase Profiler; type: biochemical
Experimental: as §2

Met(Y1248H)(h) = Met(Y1248H)(h) (Homo sapiens, UniProt P08581, Y1230H); assay: Kinase Profiler; type: biochemical
Experimental: as §2

MST1(h) = MST1(h) (Homo sapiens, UniProt Q13043); assay: Kinase Profiler; type: biochemical
MST1(h), sequence (Q13043 whole entry): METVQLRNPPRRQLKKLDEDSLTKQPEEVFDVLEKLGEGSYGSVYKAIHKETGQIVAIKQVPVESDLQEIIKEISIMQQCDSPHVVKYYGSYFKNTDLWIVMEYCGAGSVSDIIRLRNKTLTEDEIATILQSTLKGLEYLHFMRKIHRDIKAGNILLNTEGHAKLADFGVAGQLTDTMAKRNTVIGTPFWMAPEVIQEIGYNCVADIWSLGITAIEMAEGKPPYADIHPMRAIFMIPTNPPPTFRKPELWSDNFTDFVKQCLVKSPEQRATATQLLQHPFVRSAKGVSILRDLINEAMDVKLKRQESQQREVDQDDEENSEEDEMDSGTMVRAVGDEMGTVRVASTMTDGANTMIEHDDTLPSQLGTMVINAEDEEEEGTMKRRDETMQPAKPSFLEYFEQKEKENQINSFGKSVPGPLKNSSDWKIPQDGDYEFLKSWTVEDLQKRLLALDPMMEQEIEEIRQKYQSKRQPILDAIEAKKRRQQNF
Experimental: as §1

PAK1(h) = PAK1(h) (Homo sapiens, UniProt Q13153); assay: Kinase Profiler; type: biochemical
Experimental: as §1

PKCε(h) = PKCε(h) (Homo sapiens, UniProt Q02156); assay: Kinase Profiler; type: biochemical
Experimental: as §2

Ret(V804M)(h) = Ret(V804M)(h) (Homo sapiens, UniProt P07949, V804M); assay: Kinase Profiler; type: biochemical
Experimental: as §2

Rsk3(h) = Rsk3(h) (Homo sapiens, UniProt Q15349); assay: Kinase Profiler; type: biochemical
Rsk3(h), sequence (Q15349 whole entry): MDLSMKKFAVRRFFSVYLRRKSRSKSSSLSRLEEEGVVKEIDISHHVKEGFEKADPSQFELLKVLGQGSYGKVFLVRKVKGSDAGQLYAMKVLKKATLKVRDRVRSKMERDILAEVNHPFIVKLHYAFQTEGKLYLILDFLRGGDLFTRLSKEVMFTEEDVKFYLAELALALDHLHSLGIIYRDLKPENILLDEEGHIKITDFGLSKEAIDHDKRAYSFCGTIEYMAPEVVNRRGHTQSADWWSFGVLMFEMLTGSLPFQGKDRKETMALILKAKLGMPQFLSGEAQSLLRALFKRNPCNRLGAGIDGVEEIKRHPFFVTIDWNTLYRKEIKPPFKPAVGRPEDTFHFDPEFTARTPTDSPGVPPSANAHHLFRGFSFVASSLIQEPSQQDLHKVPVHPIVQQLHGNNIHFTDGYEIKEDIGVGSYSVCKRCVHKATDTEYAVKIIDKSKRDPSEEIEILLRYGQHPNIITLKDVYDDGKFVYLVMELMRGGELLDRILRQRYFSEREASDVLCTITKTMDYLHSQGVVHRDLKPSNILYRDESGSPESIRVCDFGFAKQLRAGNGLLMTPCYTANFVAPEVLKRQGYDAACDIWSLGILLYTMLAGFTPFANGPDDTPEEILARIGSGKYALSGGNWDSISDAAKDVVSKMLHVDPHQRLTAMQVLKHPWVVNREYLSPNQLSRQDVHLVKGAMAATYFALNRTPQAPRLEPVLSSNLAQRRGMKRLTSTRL
Experimental: as §2

Src(T341M)(h) = Src(T341M)(h) (Homo sapiens, UniProt P12931, T341M); assay: Kinase Profiler; type: biochemical
Experimental: as §2

STK25(h) = STK25(h) (Homo sapiens, UniProt O00506); assay: Kinase Profiler; type: biochemical
Experimental: as §2

PI3K (p110a/p65a)(m) = assay: Kinase Profiler; type: biochemical, mouse
Experimental: as §1

[3] = target: PI3K (p110a(E542K)/p85a)(m) (Mus musculus, UniProt P42337, E542K); assay: Kinase Profiler; type: biochemical
Experimental: as §2

[4] = target: PI3K (p110a(H1047R)/p85a)(h) (Homo sapiens, UniProt P42336, H1047R); assay: Kinase Profiler; type: biochemical
PI3K (p110a(H1047R)/p85a)(h), sequence (P42336 whole entry H1047R): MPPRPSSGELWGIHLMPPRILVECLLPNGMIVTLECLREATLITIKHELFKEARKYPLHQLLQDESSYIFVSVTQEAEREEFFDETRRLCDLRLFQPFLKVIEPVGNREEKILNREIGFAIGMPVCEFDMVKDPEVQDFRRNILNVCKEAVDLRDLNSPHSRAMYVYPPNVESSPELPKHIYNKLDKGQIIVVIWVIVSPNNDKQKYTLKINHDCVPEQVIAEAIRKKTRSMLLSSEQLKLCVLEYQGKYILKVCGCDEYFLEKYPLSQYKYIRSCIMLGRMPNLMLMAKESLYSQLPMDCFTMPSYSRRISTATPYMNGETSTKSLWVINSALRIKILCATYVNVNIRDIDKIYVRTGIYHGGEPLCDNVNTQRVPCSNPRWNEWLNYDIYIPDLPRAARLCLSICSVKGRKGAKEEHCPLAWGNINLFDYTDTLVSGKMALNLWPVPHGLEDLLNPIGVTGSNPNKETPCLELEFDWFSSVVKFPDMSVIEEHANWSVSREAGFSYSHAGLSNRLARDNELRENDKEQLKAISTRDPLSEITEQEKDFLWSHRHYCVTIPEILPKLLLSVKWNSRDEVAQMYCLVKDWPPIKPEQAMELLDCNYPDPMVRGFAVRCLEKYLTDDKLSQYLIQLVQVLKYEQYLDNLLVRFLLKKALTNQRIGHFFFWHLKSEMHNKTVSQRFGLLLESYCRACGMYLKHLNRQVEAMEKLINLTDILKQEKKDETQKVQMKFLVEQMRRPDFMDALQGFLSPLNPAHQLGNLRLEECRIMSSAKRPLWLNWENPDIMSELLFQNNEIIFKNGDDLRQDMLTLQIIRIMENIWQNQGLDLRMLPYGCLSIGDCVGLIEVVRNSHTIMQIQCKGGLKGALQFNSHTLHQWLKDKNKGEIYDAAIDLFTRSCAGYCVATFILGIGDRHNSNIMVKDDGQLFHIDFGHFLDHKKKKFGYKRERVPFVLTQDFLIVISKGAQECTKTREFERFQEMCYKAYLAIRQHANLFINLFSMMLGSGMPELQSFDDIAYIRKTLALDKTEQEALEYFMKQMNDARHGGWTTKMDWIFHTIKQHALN
PI3K (p110a(H1047R)/p85a)(h), sequence (P27986 whole entry partner): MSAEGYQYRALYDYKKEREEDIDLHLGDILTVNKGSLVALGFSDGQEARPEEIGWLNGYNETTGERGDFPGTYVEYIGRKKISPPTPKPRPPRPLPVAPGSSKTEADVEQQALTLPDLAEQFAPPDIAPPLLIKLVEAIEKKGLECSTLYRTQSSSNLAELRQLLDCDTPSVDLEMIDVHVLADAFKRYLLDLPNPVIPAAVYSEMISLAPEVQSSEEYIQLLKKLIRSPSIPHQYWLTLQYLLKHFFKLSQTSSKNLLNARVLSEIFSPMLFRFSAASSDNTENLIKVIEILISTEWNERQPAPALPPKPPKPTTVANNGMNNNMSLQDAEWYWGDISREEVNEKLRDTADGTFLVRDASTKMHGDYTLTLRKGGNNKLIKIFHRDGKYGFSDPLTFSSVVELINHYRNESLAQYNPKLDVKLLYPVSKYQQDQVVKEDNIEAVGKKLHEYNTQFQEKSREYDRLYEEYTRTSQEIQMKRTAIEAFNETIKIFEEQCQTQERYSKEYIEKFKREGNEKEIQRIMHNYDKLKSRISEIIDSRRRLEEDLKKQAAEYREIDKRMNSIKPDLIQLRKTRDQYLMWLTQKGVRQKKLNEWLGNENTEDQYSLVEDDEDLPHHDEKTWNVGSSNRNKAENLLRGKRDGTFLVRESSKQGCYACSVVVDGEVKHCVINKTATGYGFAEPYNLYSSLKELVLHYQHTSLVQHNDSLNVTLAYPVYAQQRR
Experimental: as §2

CDK13/cyclinK(h) = CDK13/cyclinK(h) (Homo sapiens, UniProt Q14004)
Experimental: as §1

With `COc1ccc(OC)c(NS(=O)(=O)c2ccc(NC(=O)CCSc3ccc(C)cc3)cc2)c1` [Compound A41] the “% inh.” value (Monoamine Oxidase MAO-A) was 10%, the “% inh.” value (Monoamine Oxidase MAO-B) was 17% and the “% inh.” value [1] was 48%. The “% inh.” value (Calcium Channel N-Type) was 3%, the “% inh.” value [2] was 84% and the “Activity(%)” value (B-Raf(h)) was 90%. For the same compound, the “Activity(%)” value (CDK2/cyclinA(h)) was 97%, the “Activity(%)” value (CDK7/cyclinH/MAT1(h)) was 106% and the “Activity(%)” value (DCAMKL2(h)) was 103%. The “Activity(%)” value (DDR1(h)) was 116%, the “Activity(%)” value (HIPK1(h)) was 110% and the “Activity(%)” value (IR(h), activated) was 104%. For the same compound, the “Activity(%)” value (Lck(h) activated) was 90%, the “Activity(%)” value (MAK(h)) was 117% and the “Activity(%)” value (MEK2(h)) was 109%. For the same compound, the “Activity(%)” value (Met(Y1248C)(h)) was 118%, the “Activity(%)” value (Met(Y1248H)(h)) was 120% and the “Activity(%)” value (MST1(h)) was 96%. For the same compound, the “Activity(%)” value (PAK1(h)) was 115%, the “Activity(%)” value (PKCε(h)) was 102% and the “Activity(%)” value (Ret(V804M)(h)) was 106%. The “Activity(%)” value (Rsk3(h)) was 93%, the “Activity(%)” value (Src(T341M)(h)) was 89% and the “Activity(%)” value (STK25(h)) was 98%. For the same compound, the “Activity(%)” value (PI3K (p110a/p65a)(m)) was 100%, the “Activity(%)” value [3] was 99% and the “Activity(%)” value [4] was 97%. For the same compound, the “Activity(%)” value (CDK13/cyclinK(h)) was 97%.
